Source: ChEMBL document CHEMBL3425432, “Azide-alkyne cycloaddition-mediated cyclization of phosphonopeptides and their evaluation as PTP1B binders and enrichment tools” (Bioorg Med Chem, 2015)
Activity calls are given as the source filed them. The calls are words filed in the database; no cut-off is given here. *1 amine or outer side, *2 acyl side, *3 side chain or, on linkers, in order; H or OH if unused. Where a SMILES comes first, the peptide text is derived from it. [ ]: non-standard residue; d: D form. The star is where a group is joined. F2Pmp = N[C@@H](Cc1ccc(C(F)(F)P(=O)(O)O)cc1)C(=O)O; Biotin = O=C1N[C@H]2[C@H](CS[C@H]2CCCCC(=O)*)N1; X1 = [N-]=[N+]=N[C@@H](CCCCN[*:1])C(=O)[*:2]; pY = N[C@@H](Cc1ccc(OP(=O)(O)O)cc1)C(=O)O; Hexanoyl(6-N3) = [N-]=[N+]=NCCCCCC(=O)*; Pra = C#CC[C@H](N)C(=O)O

How the values were obtained:
[1] = Retention time of the compound by HPLC method; assay type: physicochemical
[2] = target: T1, Tyrosine-protein phosphatase non-receptor type 1 (Homo sapiens) (UniProt P18031); assay: Binding affinity to PTP1B in human U2OS cells by SDS-PAGE based pull-down assay; assay type: cell-based
T1 sequence (whole entry): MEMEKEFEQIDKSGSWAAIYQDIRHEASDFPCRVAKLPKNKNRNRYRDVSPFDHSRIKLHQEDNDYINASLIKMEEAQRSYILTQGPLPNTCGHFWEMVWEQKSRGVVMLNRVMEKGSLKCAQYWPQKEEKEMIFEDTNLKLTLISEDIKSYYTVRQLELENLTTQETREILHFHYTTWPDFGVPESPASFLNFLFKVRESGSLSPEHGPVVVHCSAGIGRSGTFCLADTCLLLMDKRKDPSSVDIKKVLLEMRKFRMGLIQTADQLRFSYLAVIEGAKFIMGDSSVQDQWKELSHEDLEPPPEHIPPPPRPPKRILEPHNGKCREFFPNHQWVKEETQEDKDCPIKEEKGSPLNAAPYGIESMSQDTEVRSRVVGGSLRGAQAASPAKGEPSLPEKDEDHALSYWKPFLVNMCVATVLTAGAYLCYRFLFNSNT

[3] = target: Proto-oncogene tyrosine-protein kinase Src (Homo sapiens) (UniProt P12931); assay: Binding affinity to c-Src in human MCF7 cells by SDS-PAGE based pull-down assay; assay type: cell-based
Chain of Proto-oncogene tyrosine-protein kinase Src (Homo sapiens) (P12931 2-536 limits assumed): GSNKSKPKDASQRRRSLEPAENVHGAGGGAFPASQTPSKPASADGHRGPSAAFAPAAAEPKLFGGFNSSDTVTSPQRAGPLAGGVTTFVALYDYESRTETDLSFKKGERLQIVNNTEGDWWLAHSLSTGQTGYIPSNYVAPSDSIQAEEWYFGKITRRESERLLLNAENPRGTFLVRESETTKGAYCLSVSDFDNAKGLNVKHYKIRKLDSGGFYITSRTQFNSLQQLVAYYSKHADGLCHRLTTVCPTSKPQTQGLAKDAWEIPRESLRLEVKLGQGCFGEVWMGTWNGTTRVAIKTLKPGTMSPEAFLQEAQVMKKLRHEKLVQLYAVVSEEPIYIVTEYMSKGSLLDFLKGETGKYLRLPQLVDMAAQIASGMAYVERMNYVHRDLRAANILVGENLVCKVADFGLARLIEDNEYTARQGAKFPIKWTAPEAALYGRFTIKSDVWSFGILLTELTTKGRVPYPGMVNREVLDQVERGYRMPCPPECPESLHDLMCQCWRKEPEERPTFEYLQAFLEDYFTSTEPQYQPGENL

[4] = target: Receptor-type tyrosine-protein phosphatase alpha (Homo sapiens) (UniProt P18433); assay: Binding affinity to PTPalpha in human MCF7 cells by SDS-PAGE based pull-down assay; assay type: cell-based
Chain of Receptor-type tyrosine-protein phosphatase alpha (Homo sapiens) (P18433 20-802 limits assumed): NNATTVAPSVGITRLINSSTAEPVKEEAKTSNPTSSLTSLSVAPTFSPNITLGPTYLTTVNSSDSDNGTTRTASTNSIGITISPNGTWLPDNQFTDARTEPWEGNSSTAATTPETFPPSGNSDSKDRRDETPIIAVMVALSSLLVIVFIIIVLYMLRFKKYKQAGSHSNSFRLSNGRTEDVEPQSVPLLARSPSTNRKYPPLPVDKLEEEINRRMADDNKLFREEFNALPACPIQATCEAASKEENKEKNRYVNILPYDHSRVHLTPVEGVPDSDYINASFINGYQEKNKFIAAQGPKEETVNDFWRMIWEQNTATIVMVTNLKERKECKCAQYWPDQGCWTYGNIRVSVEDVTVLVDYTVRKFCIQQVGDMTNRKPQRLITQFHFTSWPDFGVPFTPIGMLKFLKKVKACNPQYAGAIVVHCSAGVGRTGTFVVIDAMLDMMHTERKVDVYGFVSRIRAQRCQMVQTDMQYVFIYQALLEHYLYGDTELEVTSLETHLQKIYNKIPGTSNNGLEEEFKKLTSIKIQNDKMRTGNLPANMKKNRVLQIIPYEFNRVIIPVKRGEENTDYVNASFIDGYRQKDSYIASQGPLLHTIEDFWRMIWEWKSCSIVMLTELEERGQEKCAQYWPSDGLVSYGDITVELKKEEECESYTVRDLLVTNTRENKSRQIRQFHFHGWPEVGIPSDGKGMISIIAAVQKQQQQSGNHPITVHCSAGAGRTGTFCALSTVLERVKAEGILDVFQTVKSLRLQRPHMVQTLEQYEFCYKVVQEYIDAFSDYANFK

[5] = target: T2, Tyrosine-protein phosphatase non-receptor type 2 (Homo sapiens) (UniProt P17706); assay: Binding affinity to TCPTP in human MCF7 cells by SDS-PAGE based pull-down assay; assay type: cell-based
T2 sequence (whole entry): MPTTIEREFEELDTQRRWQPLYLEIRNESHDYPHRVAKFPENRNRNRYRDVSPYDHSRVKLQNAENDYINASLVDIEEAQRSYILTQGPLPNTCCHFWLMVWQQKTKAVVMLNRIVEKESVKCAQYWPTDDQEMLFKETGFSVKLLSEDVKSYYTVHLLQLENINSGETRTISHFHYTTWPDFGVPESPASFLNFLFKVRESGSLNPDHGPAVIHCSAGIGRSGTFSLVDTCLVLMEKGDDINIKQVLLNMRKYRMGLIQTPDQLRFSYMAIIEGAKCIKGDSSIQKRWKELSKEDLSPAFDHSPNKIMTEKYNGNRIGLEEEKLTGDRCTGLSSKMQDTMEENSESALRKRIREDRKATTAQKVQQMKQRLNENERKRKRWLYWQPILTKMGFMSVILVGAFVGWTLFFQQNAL

[6] = target: T1, Tyrosine-protein phosphatase non-receptor type 1 (Homo sapiens); assay: Binding affinity to PTP1B in human MCF7 cells by SDS-PAGE based pull-down assay; assay type: cell-based

Activity [3] | Activity [4] | Activity [5] | Activity [6] | Compound | Retention_time [1] [min] | Activity [2]
 |  |  |  | CC(=O)N[C@@H](CCCCNC(=O)CCCC[C@@H]1SC[C@@H]2NC(=O)N[C@@H]21)C(=O)N[C@@H](CCC(=O)O)C(=O)N1CCC[C@H]1C(=O)N[C@@H](CCC(N)=O)C(=O)N[C@@H](Cc1ccc(C(F)(F)P(=O)(O)O)cc1)C(=O)N[C@@H](CCC(N)=O)C(=O)N1CCC[C@H]1C(=O)NCC(=O)N[C@@H](CCC(=O)O)C(=O)N[C@@H](CC(N)=O)C(=O)N[C@@H](CC(C)C)C(N)=O (Ac-K(Biotin)EPQ[F2Pmp]QPGENL-NH2) | 9.1 | Active
inactive | inactive | inactive | inactive | CC(=O)N[C@@H](CCCCNC(=O)CCCC[C@@H]1SC[C@@H]2NC(=O)N[C@@H]21)C(=O)N[C@@H](CCC(=O)O)C(=O)N1CCC[C@H]1C(=O)N[C@@H](CCC(N)=O)C(=O)N[C@@H](Cc1ccc(OP(=O)(O)O)cc1)C(=O)N[C@@H](CCC(N)=O)C(=O)N1CCC[C@H]1C(=O)NCC(=O)N[C@@H](CCC(=O)O)C(=O)N[C@@H](CC(N)=O)C(=O)N[C@@H](CC(C)C)C(N)=O (Ac-K(Biotin)EPQ[pY]QPGENL-NH2) | 6.6 | 
 |  |  |  | CC(C)C[C@H](NC(=O)[C@H](CC(N)=O)NC(=O)[C@H](CCC(=O)O)NC(=O)CNC(=O)[C@@H]1CCCN1C(=O)[C@H](CCC(N)=O)NC(=O)[C@H](Cc1ccc(C(F)(F)P(=O)(O)O)cc1)NC(=O)[C@H](CCC(N)=O)NC(=O)[C@@H]1CCCN1C(=O)[C@H](CCC(=O)O)NC(=O)CCCC[C@@H]1SC[C@@H]2NC(=O)N[C@@H]21)C(N)=O (Biotin-EPQ[F2Pmp]QPGENL-NH2) | 8 | inactive
inactive | inactive | inactive | inactive | NC(=O)CC[C@@H]1NC(=O)[C@@H]2CCCN2C(=O)[C@H](CCC(=O)O)NC(=O)[C@@H](CCCCNC(=O)CCCC[C@@H]2SC[C@@H]3NC(=O)N[C@@H]32)n2cc(nn2)C[C@H](C(N)=O)NC(=O)[C@H](CC(N)=O)NC(=O)[C@H](CCC(=O)O)NC(=O)CNC(=O)[C@@H]2CCCN2C(=O)[C@H](CCC(N)=O)NC(=O)[C@H](Cc2ccc(O)cc2)NC1=O | 9.5 | inactive
 |  |  |  | NC(=O)CC[C@@H]1NC(=O)[C@@H]2CCCN2C(=O)[C@H](CCC(=O)O)NC(=O)[C@@H](CCCCNC(=O)CCCC[C@@H]2SC[C@@H]3NC(=O)N[C@@H]32)n2cc(nn2)C[C@H](C(N)=O)NC(=O)[C@H](CC(N)=O)NC(=O)[C@H](CCC(=O)O)NC(=O)CNC(=O)[C@@H]2CCCN2C(=O)[C@H](CCC(N)=O)NC(=O)[C@H](Cc2ccc(C(F)(F)P(=O)(O)O)cc2)NC1=O | 7.1 | Active
 |  |  |  | C#CC[C@H](NC(=O)[C@H](CC(N)=O)NC(=O)[C@H](CCC(=O)O)NC(=O)CNC(=O)[C@@H]1CCCN1C(=O)[C@H](CCC(N)=O)NC(=O)[C@H](Cc1ccc(C(F)(F)P(=O)(O)O)cc1)NC(=O)[C@H](CCC(N)=O)NC(=O)[C@@H]1CCCN1C(=O)[C@H](CCC(=O)O)NC(=O)[C@H](CCCCNC(=O)CCCC[C@@H]1SC[C@@H]2NC(=O)N[C@@H]21)N=[N+]=[N-])C(N)=O (Biotin-[X1]EPQ[F2Pmp]QPGEN[Pra]-NH2) | 8.8 | inactive
 |  |  |  | NC(=O)CC[C@@H]1NC(=O)[C@@H]2CCCN2C(=O)[C@H](CCC(=O)O)NC(=O)[C@@H](CCCCNC(=O)CCCC[C@@H]2SC[C@@H]3NC(=O)N[C@@H]32)NC(=O)CCCCCn2cc(nn2)C[C@H](C(N)=O)NC(=O)[C@H](CC(N)=O)NC(=O)[C@H](CCC(=O)O)NC(=O)CNC(=O)[C@@H]2CCCN2C(=O)[C@H](CCC(N)=O)NC(=O)[C@H](Cc2ccc(O)cc2)NC1=O | 8.5 | inactive
 |  |  |  | C#CC[C@H](NC(=O)[C@H](CC(N)=O)NC(=O)[C@H](CCC(=O)O)NC(=O)CNC(=O)[C@@H]1CCCN1C(=O)[C@H](CCC(N)=O)NC(=O)[C@H](Cc1ccc(C(F)(F)P(=O)(O)O)cc1)NC(=O)[C@H](CCC(N)=O)NC(=O)[C@@H]1CCCN1C(=O)[C@H](CCC(=O)O)NC(=O)[C@H](CCCCNC(=O)CCCC[C@@H]1SC[C@@H]2NC(=O)N[C@@H]21)NC(=O)CCCCCN=[N+]=[N-])C(N)=O ({Hexanoyl(6-N3)}-K(Biotin)EPQ[F2Pmp]QPGEN[Pra]-NH2) | 9.5 | inactive

Compound | Activity [3] | Activity [4] | Activity [5] | Activity [6] | Retention_time [1] [min] | Activity [2]
NC(=O)CC[C@@H]1NC(=O)[C@@H]2CCCN2C(=O)[C@H](CCC(=O)O)NC(=O)[C@@H](CCCCNC(=O)CCCC[C@@H]2SC[C@@H]3NC(=O)N[C@@H]32)NC(=O)CCCCCn2cc(nn2)C[C@H](C(N)=O)NC(=O)[C@H](CC(N)=O)NC(=O)[C@H](CCC(=O)O)NC(=O)CNC(=O)[C@@H]2CCCN2C(=O)[C@H](CCC(N)=O)NC(=O)[C@H](Cc2ccc(C(F)(F)P(=O)(O)O)cc2)NC1=O | inactive | inactive | Active | Active | 7.1 | Active
